Results as given in patent US8252748B2, “Peptide derived from neurotensin receptor 3 and use thereof in the treatment of psychiatric diseases” (Centre National de la Recherche Scientifique—CNRS, priority 2007, dated 2012).
No end group written: not given here.

Assays:
Format in all cases: in vivo, mouse
[1] = system: C57BL6/J mice; assay: Tail flick test of sensitivity to pain; details: bath at 48° C.; 100 μl at 10^−6 M; 30 minutes after injection
Method: This test consists of immersing the tail of a mouse in a bath at 48° C. and measuring the time it takes to withdraw it from the bath. Before any injections, a habituation test was carried out on the mouse. It consists of immersing the tail of each animal twice in the bath so as to have homogeneous groups before any treatment (obtaining a reaction time less than 12 seconds). Then the mice were injected with 100 μl of physiological saline solution (“PHYS SALINE”) or 100 μl of peptide of sequence ID No. 2 at a concentration of 10^−6 M (“PE 10^−6M”).
The mice used were C57BL6/J mice. Each group was constituted of 10 mice.
The measurements were taken 30 minutes after injection.
(§1) The difference was evaluated using the Student t test.

[2] = system: hippocampus progenitor cells; assay: Hippocampal neurogenesis (BrdU-positive cells), 2 weeks of treatment; details: 10 μM propeptide injected for 2 weeks
Method: Treatments with antidepressants are known to increase neurogenesis in the hippocampus (Santarelli, L., Saxe, M, Gross, C, Surget, A, Battaglia, F, Dulawa, S, Weisstaub, N, Lee, J, Duman, R, Arancio, O, Belzung, C, Hen, R et al. “Requirement of hippocampal neurogenesis for the behavioral effects of antidepressants” Science, 301: 805-809 (2003) (24). This cellular proliferation is measured from the increase of “progenitor” cells that incorporate a marker, 5-bromo-2-deoxyuridine (BrdU), and are transformed to mature neurons. The BrdU is detected by immunohistochemistry.
On day 1, the animals are injected IP with 300 μl of an aqueous solution of 10 mM of BrdU, then put back in the cage.
On day 2, the animals are euthanased and then the tissues are fixed by intracardiac perfusion of a cold solution of 4% paraformaldehyde. The brains are removed and then frozen at −20° C.
Series of 40 μm sections are prepared, so as to cover the entire hippocampal structure, using a vibratome (Leica). One section out of six is retained for measuring the incorporation of BrdU by means of a monoclonal mouse anti-BrdU antibody (Becton Dickinson). […] The peroxidase activity is visualized by hydrolysis of DAB. The cells labeled in this way are counted on each section. […]

[3] = system: C57BL6/J mice; assay: Intake of food and drinking water after long-term treatment; details: daily IP 100 μl at 10^−5 M for 15 days; 6 and 72 hours after end of treatment
Method: The intake of food and of drinking water was also measured. Two experimental groups of C57BL6/J mice (n=10 per group) were used: the first group received an intraperitoneal injection daily for 15 days of 100 μl of physiological saline solution (“PHYS SALINE”), the second group received an intraperitoneal injection daily for 15 days of 100 μl of a solution containing the peptide of sequence ID No. 2 at a concentration of 10^−5M (“PE 10^−5 M”).
These measurements were taken 6 and 72 hours after the end of long-term treatment.
as §1

[4] = system: C57BL6/J mice; assay: Kainate-induced epileptic seizures; details: IP 100 μl at 10^−5 M; kainate 30 mg/kg IP; 90 minutes after kainate; 10 mice per group (5 in saline group)
Method: In this experiment, the mice used were C57BL6/J, […], which received an intraperitoneal injection of 100 μl of physiological saline solution and a “PE 10^−5 M” group, in which the mice received an intraperitoneal injection of 100 μl of a solution containing the peptide of the invention at a concentration of 10^−5M. In each of the experimental groups, epileptic seizures were induced by intraperitoneal injection of 100 μl of kainate at a rate of 30 mg/kg. Observation of the stage of epileptic seizure was carried out 90 minutes after injection of kainate. This was based on observation of the behavior of the mice.
The different stages of epileptic seizure are presented in the document of Tsirka S. E., Gualandris, A., Amaral, D. G., Strickland, S. “Excitotoxin-induced neuronal degeneration and seizure are mediated by tissue plasminogen activator”, Nature, 377: 340-344 (1995) (26).
6 stages are defined for describing the intensity of an epileptic attack: • Stage 1: immobility • Stage 2: movements of the head and of the nape • Stage 3: unilateral clonic activity • Stage 4: bilateral clonic activity • Stage 5: generalized convulsions • Stage 6: death of the animal
Statistical analysis was performed by a two-factor ANOVA test followed by the post-hoc test.

## APLPRWSGPIGVSWGLR [propeptide, APLPRWSGPIGVSWGLR]
[1]
  time to withdraw tail from bath: 8.3 ± 0.7 s
[2]
  neurogenesis (BrdU-labeled cells): considerable neurogenesis comparable to that induced by fluoxetine
[3]
  food intake: does not have a significant effect
  intake of drinking water: no significant difference
[4]
  number of animals that reached stage 5 (generalized convulsions): 2 animals
